Results reported in patent US20160051541A1 (CHANRX CORPORATION, priority 2013, published 2016).
Read-outs that look alike come from different tables or passages of the source. One block for each compound: values may come before it.

Tests used:
[1] = Preliminary studies of daily use over 7, 10 and 14 days; type: in vivo; settings: 75, 100, 125 and 150 mg a day over 7, 10 and 14 days
[2] = cited from earlier work
[3] = Pharmacokinetic tests in dogs; type: in vivo; settings: dog, plasma; repetitive dosing in dogs
[4] = Example 3: vanoxerine daily for 14 days in fourteen healthy patients; type: in vivo, human
Experimental: A standardized meal was served 15 minutes prior to each dosing.

[5] = Example 4: vanoxerine daily for 7 days in four patients; type: in vivo, human; settings: 50, 100 and 150 mg daily, all patients
[6] = Further studies of half-life and steady state on oral dosing; type: in vivo; settings: in some cases
[7] = Example 1: plasma concentrations of vanoxerine and metabolites after a 300 mg dose in patients; type: in vivo, human; settings: for concentration at 1 h / concentration at 3 h / concentration at 4 h / concentration at 6 h / concentration at 8 h / concentration at 12 h / concentration at 24 h / concentration at 0.5 h: human, plasma, 300 mg; for concentration at 0.5 h: .5 h
Experimental: Each patient gave blood samples before administration of their dose, and then again at nine further time points, 30 minutes after administration, 1, 2, 3, 4, 6, 8, 12, and 24 hours post administration.

[8] = Recovery of radioactivity labeled vanoxerine in rats; type: in vivo
[9] = Example 2: daily doses of vanoxerine for 11 consecutive days in 12 subjects (PK, heart rate, blood pressure); type: in vivo, human; settings: for PK Data (Mean +/- SD) T1/2 / PK Data (Mean +/- SD) CMax: 11 consecutive days
[10] = test system: atrial fibrillation; settings: canines, cited from earlier work
[11] = 10 patients, 1.00 = below LLOQ, read-out: High concentration group average
[12] = 15 patients, 1.00 = below LLOQ, read-out: Low concentration group average

half-life [3]: ~66 h | steady state serum levels reported within ([4]; 25, 75 and 125 mg daily for 14 days): 9 to 11 days | steady-state levels achieved [5]: within one week | steady state achieved within ([6]; oral dosing): ≤ 3 days | half-life ([6]; plasma, oral): ≤ 125 h | concentration at 1 h [7, 11]: 115 ng/mL | concentration at 3 h [7, 11]: 156 ng/mL | concentration at 4 h [7, 11]: 96.1 ng/mL | concentration at 6 h [7, 11]: 57.1 ng/mL | concentration at 8 h [7, 11]: 43.2 ng/mL | concentration at 12 h [7, 11]: 29.3 ng/mL | concentration at 24 h ([7]; 10 patients, read-out: High concentration group average): 3.07 ng/mL | concentration at 0.5 h [7, 11]: 37.7 ng/mL | concentration at 1 h [7, 12]: 40.1 ng/mL | concentration at 3 h [7, 12]: 31.4 ng/mL | concentration at 4 h [7, 12]: 24.4 ng/mL | concentration at 6 h [7, 12]: 16.7 ng/mL | concentration at 8 h [7, 12]: 11.8 ng/mL | concentration at 12 h [7, 12]: 6.31 ng/mL | concentration at 24 h [7, 12]: 5.01 ng/mL | concentration at 0.5 h [7, 12]: 17 ng/mL | plasma levels, highest at any time point ([7]; low concentration group): ~40 ng/mL | recovery of administered radioactivity [8]: incomplete
Structure (SMILES): Fc1ccc(C(OCCN2CCN(CCCc3ccccc3)CC2)c2ccc(F)cc2)cc1 [Vanoxerine, 1-[2-[bis(4-fluorophenyl)methoxy]ethyl]-4-(3-phenylpropyl)piperazine]
heart rate and systolic blood pressure [1]: increased heart rate and systolic blood pressure | side-effects ([2]; daily repetitive dose of 50 mg): no side-effects should be expected | side-effects ([2]; higher doses): some effects were seen with regard to concentration difficulties, increase systolic blood pressure, asthenia, and a feeling of drug influence | adverse events ([4]; 25, 75 and 125 mg daily for 14 days, standardized meal before dosing): No significant adverse events | serum levels, dose proportionality ([4]; higher doses compared with lower doses): disproportionately and statistically greater levels at higher doses | plasma levels detectable ([9]; 25 mg daily): not detectable after 8 hours | PK Data (Mean +/- SD) T1/2 ([9]; 50 mg daily, range 4.71-110.57): 49.39 +/− 26.18 hr (4.71-110.57) | PK Data (Mean +/- SD) CMax ([9]; 75 mg daily): 27.4 ± 15.5 ng/mL | PK Data (Mean +/- SD) T1/2 ([9]; 75 mg daily, range 10.26-116.67): 52.53 +/− 37.46 (10.26-116.67) hr | PK Data (Mean +/- SD) CMax ([9]; 100 mg daily): 40.2 ± 26.6 ng/mL | PK Data (Mean +/- SD) T1/2 ([9]; 100 mg daily, range 5.56-125.00): 15.38 +/− 43.55 (5.56-125.00) hr | plasma levels detectable ([9]; 50, 75 and 100 mg doses): detectable at 24 hours | steady state reached ([9]; 50, 75 and 100 mg doses daily): ≤ 8 days | heart rate and systolic blood pressure ([9]; 75 and 100 mg doses daily): increased slightly in most subjects | PK linearity ([9]; across 50, 75 and 100 mg doses): linear and the dose proportional | half-life of the drug when daily doses are given ([9]; daily doses): increased half-life | Tmax ([9]; human, plasma, printed under the 50 mg line, +- 0.5 hr (0.5-2.0)): 1.27 h

Structure (SMILES): COc1ccccc1OCC(O)CN1CCN(CC(=O)Nc2c(C)cccc2C)CC1 (stereo not drawn) [ranolazine]
anti-AF effect ([10]; clinically relevant conditions): suppress atrial fibrillation | effects on ventricular myocardium [10]: minimal effects on ventricular myocardium
